Assay results taken from article PMC12373846, “Hemoglobin as a pseudoperoxidase and drug target for oxidative stress-related diseases” (Signal Transduction and Targeted Therapy, 2025).
“And” between values parts separate entries of the source, which are not always exact repeats. Equal entries are not always repeated. Where two headings read alike, the source gives them in different places.

Columns and labels:
Assay in all cases: SafetyScreen87 panel
[1] = molecular target: T1, 5-HT2C (h) (antagonist radioligand) (Homo sapiens, UniProt P28335); settings: 1.0E-06 M; mean; read-out: % Inhibition of Control Specific Binding (1st, 2nd, Mean)
T1 construct: purchased DiscoverX KINOMEscan scanEDGE; Eurofins Cerep SafetyScreen87
Protocol: (§1) The possibility of KDS12025 on kinase off-target, the KINOMEscan panel of scanEDGE assay was conducted in DiscoverX (CA, USA) using a site-directed competition binding with the test compounds. The assay results are given in Supplementary Table 4 and experimental information is available on the DiscoverX web page (www.discoverx.com). Moreover, the Delta SafetyScreen87 panel assay was conducted in Eurofins Discovery (Cerep, France). The assay results are given in Supplementary Table 5 and experimental information is available on the DiscoverX web page (https://www.eurofinsdiscoveryservices.com).

[2] = molecular target: T2, 5-HT2B (h) (agonist radioligand) (Homo sapiens, UniProt P41595); settings: 1.0E-06 M; mean; read-out: % Inhibition of Control Specific Binding (1st, 2nd, Mean)
T2 construct: purchased DiscoverX KINOMEscan scanEDGE; Eurofins Cerep SafetyScreen87
Protocol: as §1

[3] = molecular target: T3, RARalpha (h) (agonist radioligand) (Homo sapiens, UniProt P10276); settings: 1.0E-06 M; read-out: % Inhibition of Control Specific Binding (1st, 2nd, Mean)
T3 construct: purchased DiscoverX KINOMEscan scanEDGE; Eurofins Cerep SafetyScreen87
T3 sequence (P10276 whole entry): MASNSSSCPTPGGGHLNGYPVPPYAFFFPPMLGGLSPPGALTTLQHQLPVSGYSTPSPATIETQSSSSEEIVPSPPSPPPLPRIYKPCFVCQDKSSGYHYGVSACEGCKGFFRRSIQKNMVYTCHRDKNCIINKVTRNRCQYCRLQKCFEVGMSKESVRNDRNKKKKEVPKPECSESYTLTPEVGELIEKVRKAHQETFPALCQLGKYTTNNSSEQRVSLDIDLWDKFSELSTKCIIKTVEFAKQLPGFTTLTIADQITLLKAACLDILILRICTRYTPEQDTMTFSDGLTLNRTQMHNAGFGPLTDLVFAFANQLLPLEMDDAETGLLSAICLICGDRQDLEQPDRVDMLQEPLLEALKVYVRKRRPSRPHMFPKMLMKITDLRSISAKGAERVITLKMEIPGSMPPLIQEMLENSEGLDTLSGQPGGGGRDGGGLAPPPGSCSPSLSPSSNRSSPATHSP
Protocol: as §1

[4] = molecular target: T4, NK1 (h) (agonist radioligand) (Homo sapiens, UniProt P25103); settings: 1.0E-06 M; mean; read-out: % Inhibition of Control Specific Binding (1st, 2nd, Mean)
T4 construct: purchased DiscoverX KINOMEscan scanEDGE; Eurofins Cerep SafetyScreen87
Protocol: as §1

[5] = molecular target: T5, mu (MOP) (h) (agonist radioligand) (Homo sapiens, UniProt P35372); settings: 1.0E-06 M; mean; read-out: % Inhibition of Control Specific Binding (1st, 2nd, Mean)
T5 construct: purchased DiscoverX KINOMEscan scanEDGE; Eurofins Cerep SafetyScreen87
Protocol: as §1

[6] = molecular target: T6, H2 (h) (antagonist radioligand) (Homo sapiens, UniProt P25021); settings: read-out: % Inhibition of Control Specific Binding (1st, 2nd, Mean); 1.0E-06 M
T6 construct: purchased DiscoverX KINOMEscan scanEDGE; Eurofins Cerep SafetyScreen87
Protocol: as §1

[7] = molecular target: T7, 5-HT3 (h) (antagonist radioligand) (Homo sapiens, UniProt P46098); settings: 1.0E-06 M; read-out: % Inhibition of Control Specific Binding (1st, 2nd, Mean)
T7 construct: purchased DiscoverX KINOMEscan scanEDGE; Eurofins Cerep SafetyScreen87
Protocol: as §1

[8] = system: glycine (strychnine-sensitive) (antagonist radioligand); settings: 1.0E-06 M, read-out: % Inhibition of Control Specific Binding (1st, 2nd, Mean)
Protocol: as §1

[9] = system: GABA transporter (antagonist radioligand); settings: 1.0E-06 M, read-out: % Inhibition of Control Specific Binding (1st, 2nd, Mean)
Protocol: as §1

[10] = system: NMDA (antagonist radioligand); settings: 1.0E-06 M, read-out: % Inhibition of Control Specific Binding (1st, 2nd, Mean)
Protocol: as §1

[11] = molecular target: T8, alpha 1D (h) (antagonist radioligand) (Homo sapiens, UniProt P25100); settings: 1.0E-06 M, read-out: % Inhibition of Control Specific Binding (1st, 2nd, Mean)
T8 construct: purchased DiscoverX KINOMEscan scanEDGE; Eurofins Cerep SafetyScreen87
T8 sequence (P25100 whole entry): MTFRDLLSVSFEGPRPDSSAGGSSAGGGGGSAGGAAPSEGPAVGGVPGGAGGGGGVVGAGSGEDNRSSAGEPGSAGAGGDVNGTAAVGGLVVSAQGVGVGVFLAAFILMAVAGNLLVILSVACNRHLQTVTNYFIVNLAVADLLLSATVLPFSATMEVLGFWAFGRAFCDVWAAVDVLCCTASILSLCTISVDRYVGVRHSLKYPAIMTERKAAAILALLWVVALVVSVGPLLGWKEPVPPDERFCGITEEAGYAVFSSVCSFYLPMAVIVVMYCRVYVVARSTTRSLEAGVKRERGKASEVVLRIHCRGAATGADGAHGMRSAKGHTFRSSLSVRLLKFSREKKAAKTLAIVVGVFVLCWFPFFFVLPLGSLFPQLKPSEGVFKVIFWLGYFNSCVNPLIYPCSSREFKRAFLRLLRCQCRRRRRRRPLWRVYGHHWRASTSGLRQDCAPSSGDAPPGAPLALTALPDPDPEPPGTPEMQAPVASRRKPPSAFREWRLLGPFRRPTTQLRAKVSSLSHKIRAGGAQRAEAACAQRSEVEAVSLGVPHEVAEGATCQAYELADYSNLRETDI
Protocol: as §1

[12] = molecular target: T9, H1 (h) (antagonist radioligand) (Homo sapiens, UniProt P35367); settings: 1.0E-06 M; mean; read-out: % Inhibition of Control Specific Binding (1st, 2nd, Mean)
T9 construct: purchased DiscoverX KINOMEscan scanEDGE; Eurofins Cerep SafetyScreen87
Protocol: as §1

[13] = molecular target: T10, V1a (h) (agonist radioligand) (Homo sapiens, UniProt P37288); settings: 1.0E-06 M; mean; read-out: % Inhibition of Control Specific Binding (1st, 2nd, Mean)
T10 construct: purchased DiscoverX KINOMEscan scanEDGE; Eurofins Cerep SafetyScreen87
Protocol: as §1

[14] = molecular target: T11, N muscle-type (h) (antagonist radioligand) (Homo sapiens, UniProt P02708+P07510+Q07001); settings: 1.0E-06 M; mean; read-out: % Inhibition of Control Specific Binding (1st, 2nd, Mean)
T11 construct: purchased DiscoverX KINOMEscan scanEDGE; Eurofins Cerep SafetyScreen87
Protocol: as §1

[15] = molecular target: T12, ETA (h) (agonist radioligand) (Homo sapiens, UniProt P25101)
T12 construct: purchased DiscoverX KINOMEscan scanEDGE; Eurofins Cerep SafetyScreen87
Protocol: as §1

[16] = molecular target: T13, Potassium Channel hERG (human)- [3H] Dofetilide (Homo sapiens, UniProt Q12809); settings: 1.0E-06 M, read-out: % Inhibition of Control Specific Binding (1st, 2nd, Mean)
T13 construct: Eurofins Discovery (Cerep, France) SafetyScreen87 panel
Protocol: as §1

[17] = molecular target: T14, kappa (h) (KOP) (agonist radioligand) (Homo sapiens, UniProt P41145); settings: 1.0E-06 M; mean; read-out: % Inhibition of Control Specific Binding (1st, 2nd, Mean)
T14 construct: purchased DiscoverX KINOMEscan scanEDGE; Eurofins Cerep SafetyScreen87
Protocol: as §1

[18] = molecular target: T15, 5-HT transporter (h) (antagonist radioligand) (Homo sapiens, UniProt P31645); settings: 1.0E-06 M, read-out: % Inhibition of Control Specific Binding (1st, 2nd, Mean)
T15 construct: Eurofins Discovery (Cerep, France) SafetyScreen87 panel
T15 sequence (P31645 whole entry): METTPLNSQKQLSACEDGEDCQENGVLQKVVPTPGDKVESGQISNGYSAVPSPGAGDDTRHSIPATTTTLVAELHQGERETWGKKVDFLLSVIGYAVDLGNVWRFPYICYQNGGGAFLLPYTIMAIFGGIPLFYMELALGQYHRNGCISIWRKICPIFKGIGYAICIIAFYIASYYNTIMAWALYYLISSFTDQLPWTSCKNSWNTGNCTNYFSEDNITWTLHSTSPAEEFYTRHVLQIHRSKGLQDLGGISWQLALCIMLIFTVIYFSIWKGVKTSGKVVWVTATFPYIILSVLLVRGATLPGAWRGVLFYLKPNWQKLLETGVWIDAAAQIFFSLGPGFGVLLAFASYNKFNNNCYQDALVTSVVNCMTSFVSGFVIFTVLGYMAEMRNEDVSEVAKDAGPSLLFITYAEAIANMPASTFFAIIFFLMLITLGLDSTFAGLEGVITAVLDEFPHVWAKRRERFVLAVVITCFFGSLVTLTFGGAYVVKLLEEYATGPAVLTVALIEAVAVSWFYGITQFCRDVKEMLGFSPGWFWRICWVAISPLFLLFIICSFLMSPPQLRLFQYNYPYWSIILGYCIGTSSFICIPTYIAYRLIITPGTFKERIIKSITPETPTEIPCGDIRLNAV
Protocol: as §1

[19] = molecular target: T16, beta 1 (h) (agonist radioligand) (Homo sapiens, UniProt P08588); settings: 1.0E-06 M, read-out: % Inhibition of Control Specific Binding (1st, 2nd, Mean)
T16 construct: purchased DiscoverX KINOMEscan scanEDGE; Eurofins Cerep SafetyScreen87
T16 sequence (P08588 whole entry): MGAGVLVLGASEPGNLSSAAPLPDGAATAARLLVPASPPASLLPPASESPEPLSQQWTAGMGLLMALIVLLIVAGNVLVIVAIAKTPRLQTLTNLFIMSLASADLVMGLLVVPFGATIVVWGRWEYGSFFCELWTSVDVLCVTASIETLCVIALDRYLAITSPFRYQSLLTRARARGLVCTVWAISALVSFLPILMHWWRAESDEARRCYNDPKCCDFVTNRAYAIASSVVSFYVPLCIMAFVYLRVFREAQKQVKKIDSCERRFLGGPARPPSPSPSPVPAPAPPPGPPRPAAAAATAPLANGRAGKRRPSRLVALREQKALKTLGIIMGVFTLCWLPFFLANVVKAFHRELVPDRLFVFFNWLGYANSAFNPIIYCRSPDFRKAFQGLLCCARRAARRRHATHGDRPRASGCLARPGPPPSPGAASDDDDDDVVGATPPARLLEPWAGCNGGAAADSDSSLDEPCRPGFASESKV
Protocol: as §1

[20] = system: Ca2+ channel (L, diltiazem site) (benzothiazepines) (antagonist radioligand); settings: 1.0E-06 M, read-out: % Inhibition of Control Specific Binding (1st, 2nd, Mean)
Protocol: as §1

[21] = molecular target: T17, M3 (h) (antagonist radioligand) (Homo sapiens, UniProt P20309); settings: 1.0E-06 M; mean; read-out: % Inhibition of Control Specific Binding (1st, 2nd, Mean)
T17 construct: purchased DiscoverX KINOMEscan scanEDGE; Eurofins Cerep SafetyScreen87
Protocol: as §1

[22] = molecular target: T18, GABAA1 (h) (alpha 1,beta 2,gamma 2) (agonist radioligand) (Homo sapiens, UniProt P14867+P47870); settings: 1.0E-06 M, read-out: % Inhibition of Control Specific Binding (1st, 2nd, Mean)
T18 construct: purchased DiscoverX KINOMEscan scanEDGE; Eurofins Cerep SafetyScreen87
Protocol: as §1

[23] = molecular target: T19, CXCR2 (IL-8B) (h) (agonist radioligand) (Homo sapiens, UniProt P25025)
T19 construct: purchased DiscoverX KINOMEscan scanEDGE; Eurofins Cerep SafetyScreen87
Protocol: as §1

[24] = molecular target: T20, D2S (h) (agonist radioligand) (Homo sapiens, UniProt P14416); settings: 1.0E-06 M, read-out: % Inhibition of Control Specific Binding (1st, 2nd, Mean)
T20 construct: purchased DiscoverX KINOMEscan scanEDGE; Eurofins Cerep SafetyScreen87
T20 sequence (P14416 1-414 isoform P14416-2): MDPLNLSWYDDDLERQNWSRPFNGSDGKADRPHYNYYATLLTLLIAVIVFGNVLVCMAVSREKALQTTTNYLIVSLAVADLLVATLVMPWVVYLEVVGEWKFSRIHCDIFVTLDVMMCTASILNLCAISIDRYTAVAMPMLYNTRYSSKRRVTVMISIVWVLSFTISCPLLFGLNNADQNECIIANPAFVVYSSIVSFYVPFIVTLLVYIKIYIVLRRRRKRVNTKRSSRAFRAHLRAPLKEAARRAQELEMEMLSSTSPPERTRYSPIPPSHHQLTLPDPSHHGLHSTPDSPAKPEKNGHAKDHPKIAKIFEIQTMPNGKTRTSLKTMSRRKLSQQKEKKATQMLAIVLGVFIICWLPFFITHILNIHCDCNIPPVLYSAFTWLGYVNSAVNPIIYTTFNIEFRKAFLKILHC
Protocol: as §1

[25] = molecular target: T21, alpha 2A (h) (antagonist radioligand) (Homo sapiens, UniProt P08913); settings: 1.0E-06 M, read-out: % Inhibition of Control Specific Binding (1st, 2nd, Mean)
T21 construct: purchased DiscoverX KINOMEscan scanEDGE; Eurofins Cerep SafetyScreen87
T21 sequence (P08913 whole entry): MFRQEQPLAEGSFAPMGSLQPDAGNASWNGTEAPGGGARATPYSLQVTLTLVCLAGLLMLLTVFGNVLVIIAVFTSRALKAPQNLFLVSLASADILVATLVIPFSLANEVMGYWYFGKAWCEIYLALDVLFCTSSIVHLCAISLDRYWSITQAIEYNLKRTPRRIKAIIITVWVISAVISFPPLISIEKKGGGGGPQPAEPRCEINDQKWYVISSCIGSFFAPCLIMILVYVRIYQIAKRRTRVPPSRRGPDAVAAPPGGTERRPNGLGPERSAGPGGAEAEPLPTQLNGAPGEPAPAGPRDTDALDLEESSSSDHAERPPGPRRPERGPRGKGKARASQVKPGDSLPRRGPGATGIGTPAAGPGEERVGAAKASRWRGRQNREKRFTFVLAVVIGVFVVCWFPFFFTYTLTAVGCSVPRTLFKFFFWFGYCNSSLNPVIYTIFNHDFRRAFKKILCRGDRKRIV
Protocol: as §1

[26] = molecular target: T22, mGluR5 (h) (agonist radioligand) (Homo sapiens, UniProt P41594); settings: 1.0E-06 M, read-out: % Inhibition of Control Specific Binding (1st, 2nd, Mean)
T22 construct: purchased DiscoverX KINOMEscan scanEDGE; Eurofins Cerep SafetyScreen87
T22 sequence (P41594 21-1212): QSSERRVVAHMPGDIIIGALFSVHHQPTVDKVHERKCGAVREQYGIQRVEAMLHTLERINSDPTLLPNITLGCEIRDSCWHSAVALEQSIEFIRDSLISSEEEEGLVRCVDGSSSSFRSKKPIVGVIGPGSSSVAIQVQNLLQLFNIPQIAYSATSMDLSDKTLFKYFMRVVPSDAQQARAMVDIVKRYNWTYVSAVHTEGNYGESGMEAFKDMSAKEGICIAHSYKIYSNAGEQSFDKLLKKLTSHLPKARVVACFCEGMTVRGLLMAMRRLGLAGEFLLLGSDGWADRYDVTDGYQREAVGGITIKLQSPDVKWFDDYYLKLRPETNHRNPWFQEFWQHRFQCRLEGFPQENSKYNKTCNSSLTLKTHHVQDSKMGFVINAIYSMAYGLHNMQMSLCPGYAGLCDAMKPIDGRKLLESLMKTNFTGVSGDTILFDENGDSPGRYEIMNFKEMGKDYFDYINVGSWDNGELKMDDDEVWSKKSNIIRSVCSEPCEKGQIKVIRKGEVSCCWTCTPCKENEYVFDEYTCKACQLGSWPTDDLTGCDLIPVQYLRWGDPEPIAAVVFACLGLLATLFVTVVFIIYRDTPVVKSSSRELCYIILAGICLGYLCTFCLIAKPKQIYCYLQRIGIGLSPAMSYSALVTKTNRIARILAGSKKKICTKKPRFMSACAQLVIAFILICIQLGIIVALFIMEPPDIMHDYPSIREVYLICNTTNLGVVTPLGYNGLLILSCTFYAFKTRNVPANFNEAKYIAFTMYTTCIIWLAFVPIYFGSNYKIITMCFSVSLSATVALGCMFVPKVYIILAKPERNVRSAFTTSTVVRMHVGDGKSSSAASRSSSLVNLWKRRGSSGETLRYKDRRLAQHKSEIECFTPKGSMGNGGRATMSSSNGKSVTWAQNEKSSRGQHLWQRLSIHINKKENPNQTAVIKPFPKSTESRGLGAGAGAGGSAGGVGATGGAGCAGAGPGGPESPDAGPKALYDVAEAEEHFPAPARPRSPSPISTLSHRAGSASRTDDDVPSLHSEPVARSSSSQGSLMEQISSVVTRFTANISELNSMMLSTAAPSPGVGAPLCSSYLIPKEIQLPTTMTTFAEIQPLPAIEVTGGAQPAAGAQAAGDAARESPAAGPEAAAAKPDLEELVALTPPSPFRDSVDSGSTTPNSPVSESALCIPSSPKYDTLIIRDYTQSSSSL
Protocol: as §1

[27] = molecular target: T23, Estrogen ER alpha (h) (agonist radioligand) (Homo sapiens, UniProt P03372); settings: 1.0E-06 M; mean; read-out: % Inhibition of Control Specific Binding (1st, 2nd, Mean)
T23 construct: purchased DiscoverX KINOMEscan scanEDGE; Eurofins Cerep SafetyScreen87
Protocol: as §1

[28] = system: AMPA (agonist radioligand); settings: 1.0E-06 M, read-out: % Inhibition of Control Specific Binding (1st, 2nd, Mean)
Protocol: as §1

[29] = molecular target: T24, CB2 (h) (agonist radioligand) (Homo sapiens, UniProt P34972); settings: 1.0E-06 M, read-out: % Inhibition of Control Specific Binding (1st, 2nd, Mean)
T24 construct: purchased DiscoverX KINOMEscan scanEDGE; Eurofins Cerep SafetyScreen87
T24 sequence (P34972 whole entry): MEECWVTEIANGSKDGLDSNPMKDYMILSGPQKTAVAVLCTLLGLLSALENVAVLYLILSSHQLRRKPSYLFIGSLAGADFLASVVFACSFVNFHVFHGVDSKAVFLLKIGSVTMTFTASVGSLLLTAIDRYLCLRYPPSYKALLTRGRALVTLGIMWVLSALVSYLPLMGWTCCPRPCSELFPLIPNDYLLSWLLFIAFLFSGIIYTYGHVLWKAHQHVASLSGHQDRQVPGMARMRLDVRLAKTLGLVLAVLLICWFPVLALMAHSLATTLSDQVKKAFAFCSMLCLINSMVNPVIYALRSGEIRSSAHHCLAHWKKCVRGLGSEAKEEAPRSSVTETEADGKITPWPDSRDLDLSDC
Protocol: as §1

[30] = molecular target: T25, beta 2 (h) (antagonist radioligand) (Homo sapiens, UniProt P07550)
T25 construct: purchased DiscoverX KINOMEscan scanEDGE; Eurofins Cerep SafetyScreen87
Protocol: as §1

[31] = molecular target: T26, A1 (h) (antagonist radioligand) (Homo sapiens, UniProt P30542); settings: 1.0E-06 M, read-out: % Inhibition of Control Specific Binding (1st, 2nd, Mean)
T26 construct: purchased DiscoverX KINOMEscan scanEDGE; Eurofins Cerep SafetyScreen87
T26 sequence (P30542 whole entry): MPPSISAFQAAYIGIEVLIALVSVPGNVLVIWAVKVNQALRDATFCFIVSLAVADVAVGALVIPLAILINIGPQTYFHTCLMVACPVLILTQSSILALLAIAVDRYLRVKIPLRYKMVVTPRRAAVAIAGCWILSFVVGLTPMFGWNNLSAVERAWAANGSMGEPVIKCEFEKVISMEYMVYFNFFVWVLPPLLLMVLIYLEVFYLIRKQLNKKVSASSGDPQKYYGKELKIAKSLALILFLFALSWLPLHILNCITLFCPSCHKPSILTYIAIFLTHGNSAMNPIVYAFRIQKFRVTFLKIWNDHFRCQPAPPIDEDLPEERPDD
Protocol: as §1

[32] = 1.0E-06 M; read-out: % Inhibition of Control Specific Binding (1st, 2nd, Mean)
[33] = read-out: % Inhibition of Control Specific Binding (1st, 2nd, Mean); 1.0E-06 M

Compound `CNc1ccc(NCCc2ccccc2OC)cc1.Cl` [KDS12025, N^1-(2-methoxyphenethyl)-N^4-methylbenzene-1,4-diamine hydrochloride salt] has an activity [1] of 76.4%, an activity [2] of 63.9% and an activity [3] of 105%. It also gave an activity [4] of 91.2%, an activity [5] of 84.5% and an activity [6] of 94.2%. The activity [7] was 91.4% and 100%, the activity ([8]; mean) was 118% and the activity [8] was 117% and 118%. For the same compound, the activity ([9]; mean) was 96%, the activity [9] was 101% and 91.1% and the activity ([10]; mean) was 98.7%. For the same compound, the activity [10] was 97.8% and 99.6%, the activity ([11]; mean) was 75.8% and the activity [11] was 75.3% and 76.3%. The activity [12] was 88.2%, the activity [13] was 110% and the activity [14] was 74.3%. It also gave an activity [15, 32] of 108%, an activity [15, 33] of 90.8% and an activity ([16]; mean) of 68.5%. For the same compound, the activity [16] was 66.8%, the activity [17] was 82.7% and the activity ([18]; mean) was 54.6%. For the same compound, the activity [18] was 62.9% and 46.4%, the activity ([19]; mean) was 90.5% and the activity [19] was 86.7% and 94.3%. For the same compound, the activity ([20]; mean) was 84.9%, the activity [20] was 88.1% and 81.7% and the activity [21] was 85.5%. For the same compound, the activity ([22]; mean) was 95.1%, the activity [22] was 92.4% and 97.8% and the activity [23, 32] was 83.3%. For the same compound, the activity [23, 33] was 91.8%, the activity ([24]; mean) was 61.9% and the activity [24] was 64% and 59.8%. The activity ([25]; mean) was 86.1%, the activity [25] was 86.9% and 85.4% and the activity ([26]; mean) was 115%. For the same compound, the activity [26] was 114% and 116%, the activity [27] was 95.3% and the activity ([28]; mean) was 100%. For the same compound, the activity [28] was 98% and 103%, the activity ([29]; mean) was 84.6% and the activity [29] was 78.4% and 90.8%. The activity [30, 32] was 104%, the activity [30, 33] was 96.8% and the activity ([31]; mean) was 114%. For the same compound, the activity [31] was 115% and 114%.
